Paper PMC12015462, “Prioritization of novel anti-infective stilbene derivatives by combining metabolomic data organization and a stringent 3R-infection model in a knowledge graph” (RSC Advances, 2025)
Read-outs that look alike come from different tables or passages of the source.

How the values were obtained:
Type in all cases: cell-based
[1] = test system: Dictyostelium discoideum; assay: Infection assay: growth of the host amoeba D. discoideum (fluorescence) in infection; settings: for activity at 0.411523 µM / activity at 1.23457 µM / activity at 3.7037 µM / activity at 11.1111 µM / activity at 33.3333 µM / activity at 100 µM: 72 h; for IC50: read-out: IC50 Dd in infection (μM)
From the text: (§1) Since fractions were not weighed individually, the injection mass was used to calculate an average mass per fraction and thus a nominal mass concentration.

[2] = test system: Mycobacterium marinum; assay: Infection assay: intracellular M. marinum growth (luminescence) in D. discoideum; settings: for activity at 0.411523 µM / activity at 1.23457 µM / activity at 3.7037 µM / activity at 11.1111 µM / activity at 33.3333 µM / activity at 100 µM: 72 h; for activity at 0.411523 µM: conc 0.411522634 uM; for activity at 1.23457 µM: conc 1.234567901 uM; for activity at 3.7037 µM: conc 3.703703704 uM; for activity at 11.1111 µM: conc 11.11111111 uM; for activity at 33.3333 µM: conc 33.33333333 uM; for activity at 100 µM: conc 100 uM; for IC50: interpolated between the two concentrations closest to residual growth 0.5, top concentration 100 μM
From the text: as §1

[3] = test system: Mycobacterium marinum; assay: Anti-biotic assay: M. marinum growth in broth (luminescence); settings: for activity at 0.411523 µM / activity at 1.23457 µM / activity at 3.7037 µM / activity at 11.1111 µM / activity at 33.3333 µM / activity at 100 µM: 72 h
Protocol: as §1
Plating bacteria and compounds or fractions was performed analogously to the infection assay described above. Bacteria growth was monitored with the Agilent BioTek H1 plate reader by recording luminescence at 32 °C.
The prepared plates were sealed and stored at 4 °C overnight. On the day of the experiment, nine 10 cm Petri dishes were infected (as described before) and grouped into three pools.

[4] = read-out: mean normalized residual growth, Dd in infection
[5] = read-out: median normalized residual growth, Dd in infection
[6] = vehicle control set at 1, read-out: mean normalized residual growth, Mm in infection
[7] = vehicle control set at 1, read-out: median normalized residual growth, Mm in infection
[8] = read-out: mean (normalised M. marinum growth, Mm in broth)
[9] = read-out: median (normalised M. marinum growth, Mm in broth)

SMILES	activity at 0.411523 µM [1, 4]	activity at 1.23457 µM [1, 4]	activity at 3.7037 µM [1, 4]	activity at 11.1111 µM [1, 4]	activity at 33.3333 µM [1, 4]	activity at 100 µM [1, 4]	activity at 0.411523 µM [1, 5]	activity at 1.23457 µM [1, 5]	activity at 3.7037 µM [1, 5]	activity at 11.1111 µM [1, 5]	activity at 33.3333 µM [1, 5]	activity at 100 µM [1, 5]	IC50 [1]	activity at 0.411523 µM [2, 6]	activity at 0.411523 µM [2, 7]	activity at 1.23457 µM [2, 6]	activity at 1.23457 µM [2, 7]	activity at 3.7037 µM [2, 6]	activity at 3.7037 µM [2, 7]	activity at 11.1111 µM [2, 6]	further results
Oc1ccc(/C=C/c2cc(O)c3c(c2)O[C@@H](c2ccc(O)cc2O)[C@@H]3c2cc(O)cc(O)c2)cc1 (relative stereo) [Compound 1, (+)-Gnetin D]	161%	111%	113%	81.5%	58.3%	47.7%	94.2%	88.8%	85.1%	80.3%	86.2%	82.6%	> 100 µM	93.5%	93.7%	114%	117%	153%	154%	171%	activity at 11.1111 µM [2, 7]: 172%; activity at 33.3333 µM [2, 6]: 168%; activity at 33.3333 µM [2, 7]: 169%; activity at 100 µM [2, 6]: 86.4%; activity at 100 µM [2, 7]: 83.4%; IC50 [2]: > 100 µM; activity at 0.411523 µM [3, 8]: 121%; activity at 1.23457 µM [3, 8]: 119%; activity at 3.7037 µM [3, 8]: 118%; activity at 11.1111 µM [3, 8]: 111%; activity at 33.3333 µM [3, 8]: 110%; activity at 100 µM [3, 8]: 102%; activity at 0.411523 µM [3, 9]: 120%; activity at 1.23457 µM [3, 9]: 116%; activity at 3.7037 µM [3, 9]: 117%; activity at 11.1111 µM [3, 9]: 110%; activity at 33.3333 µM [3, 9]: 110%; activity at 100 µM [3, 9]: 102%
Oc1ccc(/C=C/c2cc(O)c3c(c2)O[C@H](c2ccc(O)cc2O)[C@@H]3c2cc(O)cc(O)c2)cc1 (relative stereo) [Compound 2, (+)-Gnetupendin C]	94.2%	97.6%	98.8%	105%	101%	114%	101%	91.8%	86%	76.8%	74.6%	83.1%	> 100 µM	112%	122%	145%	143%	154%	147%	167%	activity at 11.1111 µM [2, 7]: 167%; activity at 33.3333 µM [2, 6]: 109%; activity at 33.3333 µM [2, 7]: 105%; activity at 100 µM [2, 6]: 27.8%; activity at 100 µM [2, 7]: 35.5%; IC50 [2]: 66.7 µM; activity at 0.411523 µM [3, 8]: 97.4%; activity at 1.23457 µM [3, 8]: 103%; activity at 3.7037 µM [3, 8]: 113%; activity at 11.1111 µM [3, 8]: 109%; activity at 33.3333 µM [3, 8]: 110%; activity at 100 µM [3, 8]: 109%; activity at 0.411523 µM [3, 9]: 95.6%; activity at 1.23457 µM [3, 9]: 101%; activity at 3.7037 µM [3, 9]: 111%; activity at 11.1111 µM [3, 9]: 108%; activity at 33.3333 µM [3, 9]: 109%; activity at 100 µM [3, 9]: 109%; IC50 ([3]; read-out: IC50 Mm in broth (μM)): > 100 µM
